Read-outs that look alike come from different tables or passages of the source. Square brackets hold non-standard residues; d marks the D form. Ends that are not written are not given here. Peptide text beside a SMILES is read from it.
How the values were obtained:
[1] = In vitro peptide stability in human serum (RP-HPLC); conditions: for half-life at 50 µg/mL: human, human serum, 25% (v/v) in RPMI; for t1/2: metabolic stability in human serum
[2] = biological target: T1, human CMKLR1 (Homo sapiens, UniProt Q99788); experiment: Ca2+ mobilization (CellLux imaging) agonist assay in HEK293A cells expressing CMKLR1 and Gα15; type: cell-based
T1 construct: host or cells: HEK293A (Invitrogen), stably expressing human Gα15
T1 sequence (Q99788 1-373): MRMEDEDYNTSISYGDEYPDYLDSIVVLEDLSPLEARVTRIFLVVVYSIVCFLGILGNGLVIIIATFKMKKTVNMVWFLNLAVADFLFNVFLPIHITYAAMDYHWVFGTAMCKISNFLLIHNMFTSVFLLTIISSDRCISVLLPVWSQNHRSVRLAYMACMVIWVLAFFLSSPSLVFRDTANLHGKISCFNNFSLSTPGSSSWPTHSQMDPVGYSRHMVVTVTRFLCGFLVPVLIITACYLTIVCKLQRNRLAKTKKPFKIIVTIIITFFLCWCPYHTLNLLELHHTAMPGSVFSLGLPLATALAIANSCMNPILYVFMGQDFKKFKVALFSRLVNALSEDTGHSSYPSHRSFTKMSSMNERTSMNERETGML
Procedure, shortened: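 HEK293A cells co-expressing CMKLR1 and Gα15 were loaded with FLUO4-AM, and peptides were added robotically in C1 buffer (HEPES pH 7.4, 2 mM CaCl2) with 0.1% BSA. Fluorescence changes were read in duplicate wells, buffer-subtracted and normalized to background. EC50 came from amplitude–concentration plots.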

[3] = Ca2+ mobilization, CMKLR1, decimal comma
[4] = Ca2+ mobilization, CMKLR1, decimal comma, NR where no EC50 is given, read-out: EC50
[5] = intracellular calcium mobilization, HEK293 cells expressing CMKLR1, mean of three independent experiments ± SD, read-out: activity: EC50 ±SD

YFPGQYAFF-OH [compound 30]
half-life at 50 µg/mL [1]: 26 min | max response [2, 3]: 0,98 DF/F0 | EC50 [2, 4]: 1.89 nM

FLPGALGFF-OH [compound 60]
half-life at 50 µg/mL [1]: 19 min | max response [2, 3]: 0,69 DF/F0 | EC50 [2, 4]: 406 nM

YLPGQYAFL-OH [compound 38]
t1/2 [1]: 27 min | max response [2, 3]: 1,05 DF/F0

C[C@H](NC(=O)[C@H](Cc1ccccc1)NC(=O)[C@H](C)NC(=O)[C@H](Cc1ccc(O)cc1)NC(=O)[C@H](C)NC(=O)[C@H](Cc1ccccc1)NC(=O)[C@@H](CO)NC(=O)[C@H](Cc1ccccc1)NC(=O)[C@@H](N)CCC(N)=O)C(=O)O [compound 102] (H-QF[dS]FAYAFA-OH; N-terminus assumed)
half-life at 50 µg/mL [1]: 83 min | max response [2, 3]: 1,78 DF/F0 | EC50 [2, 4]: 143 nM

C[C@H](NC(=O)[C@@H](N)Cc1ccc(O)cc1)C(=O)N[C@@H](Cc1ccccc1)C(=O)N[C@H](CO)C(=O)N1CCC[C@H]1C(=O)NCC(=O)N[C@@H](CCC(N)=O)C(=O)N[C@@H](Cc1ccccc1)C(=O)N[C@H](CO)C(=O)O [compound 93] (H-YAF[dS]PGQF[dS]-OH; N-terminus assumed)
half-life at 50 µg/mL [1]: 81 min | max response [2, 3]: 1,67 DF/F0 | EC50 [2, 4]: 64.4 nM

CC(C)C[C@H](NC(=O)[C@@H](N)Cc1ccc(O)cc1)C(=O)N1CCC[C@H]1C(=O)NCC(=O)N[C@@H](CCC(N)=O)C(=O)N[C@@H](Cc1ccccc1)C(=O)N[C@@H](C)C(=O)N[C@H](Cc1ccccc1)C(=O)N[C@@H](Cc1ccccc1)C(=O)O [compound 42] (H-YLPGQFA[dF]F-OH; N-terminus assumed)
half-life at 50 µg/mL [1]: 30 min | max response [2, 3]: 1,07 DF/F0 | EC50 [2, 4]: 8.93 nM

NC(=O)CC[C@H](NC(=O)CNC(=O)[C@@H]1CCCN1C(=O)[C@@H](Cc1ccc(O)cc1)NC(=O)[C@H](Cc1ccc(O)cc1)NC(=O)[C@H](CCC(N)=O)NC(=O)[C@H](N)Cc1ccccc1)C(=O)N[C@@H](Cc1ccc(O)cc1)C(=O)N[C@@H](Cc1ccc(O)cc1)C(=O)O [compound 137] (H-[dF]QY[dY]PGQYY-OH; N-terminus assumed)
half-life at 50 µg/mL [1]: 108 min | max response [2, 3]: 1,42 DF/F0 | EC50 [2, 4]: 103 nM

FLPGQYAFK-OH [compound 64]
half-life at 50 µg/mL [1]: 26 min | max response [2, 3]: 0,93 DF/F0 | EC50 [2, 4]: 567 nM

CC(C)C[C@H](NC(=O)[C@H](N)Cc1ccc(O)cc1)C(=O)N1CCC[C@H]1C(=O)NCC(=O)N[C@H](Cc1c[nH]c2ccccc12)C(=O)N[C@@H](Cc1ccc(O)cc1)C(=O)N[C@@H](C)C(=O)N[C@@H](Cc1ccccc1)C(=O)N[C@H](Cc1ccccc1)C(=O)O [compound 142] (H-[dY]LPG[dW]YAF[dF]-OH; N-terminus assumed)
half-life at 50 µg/mL [1]: 421 min | max response [2, 3]: 1,55 DF/F0 | EC50 [2, 4]: 128 nM

CC(C)C[C@H](NC(=O)[C@H](Cc1ccccc1)NC(=O)CNC(=O)[C@@H]1CCCN1C(=O)[C@H](CC(C)C)NC(=O)[C@@H](N)Cc1ccccc1)C(=O)N[C@@H](C)C(=O)N[C@@H](CC(C)C)C(=O)N1CCC[C@@H]1C(=O)O [compound 72] (H-FLPGFLAL[dP]-OH; N-terminus assumed)
half-life at 50 µg/mL [1]: 218 min | max response [2, 3]: 0,64 DF/F0 | EC50 [2, 4]: 2610 nM

CC(C)C[C@H](NC(=O)[C@@H](N)Cc1ccc(O)cc1)C(=O)N1CCC[C@H]1C(=O)N[C@@H](Cc1ccc(O)cc1)C(=O)N1CCC[C@H]1C(=O)N[C@@H](Cc1ccc(O)cc1)C(=O)N1CCC[C@@H]1C(=O)N[C@@H](Cc1ccccc1)C(=O)N[C@H](Cc1ccccc1)C(=O)O [compound 147] (H-YLPYPY[dP]F[dF]-OH; N-terminus assumed)
half-life at 50 µg/mL [1]: 28 min | max response [2, 3]: 1,36 DF/F0 | EC50 [2, 4]: 207 nM

CC(C)C[C@H](NC(=O)[C@H](N)Cc1ccc(O)cc1)C(=O)N1CCC[C@H]1C(=O)NCC(=O)N[C@@H](CCC(N)=O)C(=O)N[C@@H](Cc1ccc(O)cc1)C(=O)N[C@@H](C)C(=O)N[C@@H](Cc1ccc(O)cc1)C(=O)N[C@@H](CO)C(=O)O [compound 101] (H-[dY]LPGQYAYS-OH; N-terminus assumed)
half-life at 50 µg/mL [1]: 81 min | max response [2, 3]: 1,56 DF/F0 | EC50 [2, 4]: 140 nM

CC(C)C[C@@H](NC(=O)[C@H](CCCNC(=N)N)NC(=O)[C@@H](N)Cc1ccc(O)cc1)C(=O)NCC(=O)N[C@@H](CCC(N)=O)C(=O)N[C@@H](Cc1ccc(O)cc1)C(=O)N[C@H](Cc1c[nH]c2ccccc12)C(=O)N[C@H](CC(=O)O)C(=O)N[C@H](Cc1ccccc1)C(=O)O [compound 129] (H-YR[dL]GQY[dW][dD][dF]-OH; N-terminus assumed)
half-life at 50 µg/mL [1]: 32 min | max response [2, 3]: 1,1 DF/F0 | EC50 [2, 4]: 41.7 nM

YLPGQYAFL-OH
half-life at 50 µg/mL [1]: 27 ± 4 min | EC50 [2, 5]: 5.75 ± 2.56 nM

CC(C)[C@H](NC(=O)[C@@H](N)Cc1ccc(O)cc1)C(=O)N1CCC[C@H]1C(=O)NCC(=O)N[C@@H](CCC(N)=O)C(=O)N[C@@H](Cc1ccccc1)C(=O)N[C@@H](C)C(=O)N[C@@H](Cc1ccccc1)C(=O)N[C@H](CO)C(=O)O [compound 90] (H-YVPGQFAF[dS]-OH; N-terminus assumed)
half-life at 50 µg/mL [1]: 23 min | max response [2, 3]: 1,81 DF/F0 | EC50 [2, 4]: 50 nM

CC(C)C[C@@H](NC(=O)[C@H](Cc1c[nH]cn1)NC(=O)[C@H](N)CO)C(=O)NCC(=O)N[C@@H](CCC(N)=O)C(=O)N[C@@H](Cc1ccc(O)cc1)C(=O)N[C@@H](C)C(=O)N[C@H](CC(=O)O)C(=O)N[C@@H](CO)C(=O)O [compound 96] (H-[dS]H[dL]GQYA[dD]S-OH; N-terminus assumed)
half-life at 50 µg/mL [1]: 3250 min | max response [2, 3]: 1,63 DF/F0 | EC50 [2, 4]: 90.5 nM

FLPGQPYFL-OH [compound 65]
half-life at 50 µg/mL [1]: 32 min | max response [2, 3]: 0,91 DF/F0 | EC50 [2, 4]: 713 nM

C[C@H](NC(=O)[C@H](Cc1ccc(O)cc1)NC(=O)[C@H](CCC(N)=O)NC(=O)CNC(=O)[C@@H]1CCCN1C(=O)[C@@H](Cc1ccc(O)cc1)NC(=O)[C@@H](N)Cc1ccc(O)cc1)C(=O)N[C@@H](Cc1ccccc1)C(=O)N[C@H](CO)C(=O)O [compound 88] (H-Y[dY]PGQYAF[dS]-OH; N-terminus assumed)
half-life at 50 µg/mL [1]: 891 min | max response [2, 3]: 1,51 DF/F0 | EC50 [2, 4]: 35.1 nM

C[C@H](NC(=O)[C@H](Cc1ccc(O)cc1)NC(=O)[C@H](CCC(N)=O)NC(=O)CNC(=O)[C@@H]1CCCN1C(=O)[C@H](CCC(=O)O)NC(=O)[C@@H](N)Cc1ccc(O)cc1)C(=O)N[C@@H](Cc1ccccc1)C(=O)N[C@H](CO)C(=O)O [compound 94] (H-YEPGQYAF[dS]-OH; N-terminus assumed)
half-life at 50 µg/mL [1]: 47 min | max response [2, 3]: 1,56 DF/F0 | EC50 [2, 4]: 76.2 nM

CC(C)C[C@H](NC(=O)[C@@H](N)Cc1ccc(O)cc1)C(=O)N1CCC[C@H]1C(=O)NCC(=O)N[C@@H](CCC(N)=O)C(=O)N[C@@H](Cc1ccc(O)cc1)C(=O)N[C@H](Cc1c[nH]c2ccccc12)C(=O)N[C@@H](Cc1ccccc1)C(=O)N[C@H](Cc1ccccc1)C(=O)O [YLPGQYwFf] (H-YLPGQY[dW]F[dF]-OH; N-terminus assumed)
half-life at 50 µg/mL [1]: 159 ± 56 min | EC50 [2, 5]: 3.24 ± 1.02 nM

YPPGQYAFF-OH [compound 68]
half-life at 50 µg/mL [1]: 54 min | max response [2, 3]: 0,94 DF/F0 | EC50 [2, 4]: 1480 nM

CC(C)C[C@H](NC(=O)[C@H](N)Cc1ccccc1)C(=O)N1CCC[C@H]1C(=O)NCC(=O)N[C@@H](CCC(N)=O)C(=O)N[C@@H](Cc1ccc(O)cc1)C(=O)N[C@@H](C)C(=O)N[C@@H](Cc1ccccc1)C(=O)N[C@H](Cc1ccccc1)C(=O)O [compound 83] (H-[dF]LPGQYAF[dF]-OH; N-terminus assumed)
t1/2 [1]: 1157 min | max response [2, 3]: 1,82 DF/F0

YLPGQGAFP-OH [compound 49]
half-life at 50 µg/mL [1]: 17 min | max response [2, 3]: 0,97 DF/F0 | EC50 [2, 4]: 28.7 nM

FLPGQYAFS-OH
half-life at 50 µg/mL [1]: 28 ± 1 min | EC50 [2, 5]: 2.75 ± 0.14 nM

CC(C)C[C@H](N)C(=O)N[C@H](Cc1ccccc1)C(=O)NCC(=O)N1CCC[C@@H]1C(=O)N[C@@H](Cc1ccc(O)cc1)C(=O)NCC(=O)N[C@H](Cc1c[nH]c2ccccc12)C(=O)N[C@H](CO)C(=O)N[C@@H](C)C(=O)O [compound 138] (H-L[dF]G[dP]YG[dW][dS]A-OH; N-terminus assumed)
half-life at 50 µg/mL [1]: 637 min | max response [2, 3]: 1,97 DF/F0 | EC50 [2, 4]: 104 nM
